# Measured values reported in publication PMC5332298 (Nature cell biology, 2017).
# Where two headings read alike, the source gives them in different places.
# Assays:
# MDA-MB-231 spheroids [1] = assay: 3D spheroid BME cell invasion assay; format: cell-based, Human; conditions: 50 nM MK2206 or 25 nM perifosine, 4 days
# MDA-MB-231 spheroids [2] = assay: 3-D spheroid fluorometric proliferation/viability assay; format: cell-based, Human; conditions: for proliferation (growth) of spheroids: 50 nM MK2206 or 25 nM perifosine, 4 days
# AKT-PIP3 binding = AKT-PIP3 binding (Homo sapiens, UniProt P31749); assay: biochemical
# [3] = test system: MS2-LINK-A-PIP3 interaction in MDA-MB-231 cells; assay: MS2-TRAP assay with PIP3 mass ELISA; format: cell-based, Human; conditions: cell permeable competitor 100 µM, 2 hrs
# LINK-A-PIP3 interaction [4] = assay: RNA-lipid vesicles; format: binding; conditions: 100:1 molar ratio to PIP3
# LINK-A-PIP3 interaction [5] = assay: RNA-lipid overlay assay on PIP arrays with soluble competitors; format: binding; conditions: 100:1 molar ratio to RNA
# [6] = test system: LINK-A-PIP3 interaction in MDA-MB-231 cells; assay: RIP assay using a PIP3 antibody; conditions: MDA-MB-231 cells treated with PI3K inhibitor
# [7] = molecular target: AKT (His6-tagged recombinant, ThermoFisher) (UniProt P31749 1-480); assay: Alpha competition assay
# Chain of AKT (His6-tagged recombinant, ThermoFisher) (P31749 whole entry): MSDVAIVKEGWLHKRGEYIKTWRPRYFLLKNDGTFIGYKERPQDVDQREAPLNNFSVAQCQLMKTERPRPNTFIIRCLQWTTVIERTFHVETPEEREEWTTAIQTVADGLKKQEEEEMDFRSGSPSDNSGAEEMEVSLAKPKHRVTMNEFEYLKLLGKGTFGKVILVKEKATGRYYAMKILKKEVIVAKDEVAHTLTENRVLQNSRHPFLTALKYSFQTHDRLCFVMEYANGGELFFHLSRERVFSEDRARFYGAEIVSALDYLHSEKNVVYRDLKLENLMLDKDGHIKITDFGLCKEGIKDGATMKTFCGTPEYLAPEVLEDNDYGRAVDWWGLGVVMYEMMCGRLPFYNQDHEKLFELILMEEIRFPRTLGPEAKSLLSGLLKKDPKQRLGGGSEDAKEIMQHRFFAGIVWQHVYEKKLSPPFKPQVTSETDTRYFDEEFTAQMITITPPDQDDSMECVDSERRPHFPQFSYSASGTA
# Chain of AKT-PIP3 binding (P31749 whole entry): as above
molecule,measurement,setting,value
CCCCCCCCCCCCCCCCCCOP(=O)([O-])OC1CC[N+](C)(C)CC1 [perifosine],invasion of spheroids,MDA-MB-231 spheroids [1]; LINK-A PIP3-BM−/− spheroids,efficiently inhibited
same,invasion of spheroids,MDA-MB-231 spheroids [1]; LINK-A PIP3BM+/+ spheroids,undetectable effect
same,proliferation (growth) of spheroids,MDA-MB-231 spheroids [2]; LINK-A PIP3-BM−/− spheroids,efficiently inhibited
same,proliferation (growth) of spheroids,MDA-MB-231 spheroids [2]; LINK-A PIP3BM+/+ spheroids,undetectable effect
same,sensitization of LINK-A PIP3-BM−/− spheroids vs PIP3-BM+/+,MDA-MB-231 spheroids [2]; spheroid viability IC50,"about 20,000 fold"
same,antagonism of the inhibitory effect by FL LINK-A,AKT-PIP3 binding,140 fold
same,IC50,AKT-PIP3 binding; IC50 for inhibiting AKT-PIP3 binding,4.8 µM
"O=P(O)(O)OC1[C@@H](OP(=O)(O)O)[C@H](OP(=O)(O)O)C(O)[C@H](OP(=O)(O)O)[C@H]1OP(=O)(O)O (stereo partly drawn) [PI(1,3,4,5,6)P5]",MS2-LINK-A-associated PIP3 (PIP3 mass ELISA),[3],impaired
"O=P(O)(O)OC1[C@H](O)[C@H](OP(=O)(O)O)C(OP(=O)(O)O)[C@H](OP(=O)(O)O)[C@H]1O (stereo partly drawn) [IP4, D-myo-Inositol 1,3,4,5-tetrakisphosphate]",effect of competitor on recruitment of LINK-A ΔPC to PIP3-containing GUVs,LINK-A-PIP3 interaction [4],abolished
same,effect of soluble competitor on LINK-A binding to PIP array,LINK-A-PIP3 interaction [5],abolished
"Phosphatidylinositol-3,4,5-trisphosphate [PIP3]",effect of soluble competitor on LINK-A binding to PIP array,LINK-A-PIP3 interaction [5],abolished
O=c1cc(N2CCOCC2)oc2c(-c3ccccc3)cccc12 [LY294002],LINK-A-PIP3 interaction in vivo (RIP with PIP3 antibody),[6],abolished
NC1(c2ccc(-c3nc4ccn5c(=O)[nH]nc5c4cc3-c3ccccc3)cc2)CCC1 [MK2206],invasion of spheroids,MDA-MB-231 spheroids [1]; LINK-A PIP3-BM−/− spheroids,efficiently inhibited
same,invasion of spheroids,MDA-MB-231 spheroids [1]; LINK-A PIP3BM+/+ spheroids,undetectable effect
same,proliferation (growth) of spheroids,MDA-MB-231 spheroids [2]; LINK-A PIP3-BM−/− spheroids,efficiently inhibited
same,proliferation (growth) of spheroids,MDA-MB-231 spheroids [2]; LINK-A PIP3BM+/+ spheroids,undetectable effect
same,antagonism of the inhibitory effect by FL LINK-A,"AKT-PIP3 binding; in vitro, presence of FL LINK-A",753 fold
CAGGGUAGACUCGCUCUG (structured_RNA) [LINK-A nt 1100-1117 WT],binding result,[7],binds
